# Data taken from PubChem BioAssay (NCI).
# Where “and” joins values, the source holds several entries; their conditions need not be identical. Equal entries are not always repeated.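 Assay format: 96-well plates, 48-hour exposure. Here, GI50 denotes the concentration required for 50% inhibition of growth. Definition used: TGI = concentration required for complete inhibition of growth.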
# Key:
# Experiment in all cases: growth of human tumour cells (NCI), 48 h
# [1] = tested on: CCRF-CEM leukemia
# [2] = tested on: EKVX NSCLC
# [3] = tested on: HCT-15 colon
# [4] = tested on: HOP-62 NSCLC
# [5] = tested on: IGROV1 ovarian
# [6] = tested on: M14 melanoma
# [7] = tested on: MOLT-4 leukemia
# [8] = tested on: NCI-H226 lung
# [9] = tested on: NCI/ADR-RES ovarian
# [10] = tested on: PC-3 prostate
SMILES,TGI [1] [nM],TGI [2],GI50 [3],TGI [3],GI50 [4] [nM],TGI [4],GI50 [5],TGI [5],GI50 [6] [nM],TGI [6],GI50 [7] [nM],TGI [7],GI50 [8],TGI [8],GI50 [9] [nM],TGI [9],TGI [10],GI50 [1] [nM],GI50 [2],GI50 [10]
CN[C@@H]1C[C@H]2O[C@@](C)([C@@H]1OC)n1c3ccccc3c3c4c(c5c6ccccc6n2c5c31)C(=O)N[C@@H]4O,1390,232 nM and 2120 nM,55.6 nM,300 nM and 1330 nM,40.1,170 nM and 334 nM,12.9 nM and 46.1 nM,61.7 nM and 341 nM,31.1,300 nM and 1250 nM,22.8,98.1 nM and 654 nM,49.2 nM,300 nM and 477 nM,105,300 nM and 420 nM,258 nM and 130 nM,–,–,–
O=C1CCCN1CC#CCN1CCCC1,> 100000,> 100000 nM,> 100000 nM,> 100000 nM,> 100000,> 100000 nM,> 100000 nM,> 100000 nM,> 100000,> 100000 nM,> 100000,> 100000 nM,> 100000 nM,> 100000 nM,> 100000,> 100000 nM,> 100000 nM,> 100000,> 100000 nM,> 100000 nM
CNC(=S)N/N=C/c1ccc([N+](=O)[O-])s1,> 10000,> 10000 nM,–,> 10000 nM,–,> 10000 nM,–,> 10000 nM,–,> 10000 nM,–,> 10000 nM,–,> 10000 nM,–,> 10000 nM,> 10000 nM,–,–,–
COc1cc(S(C)(=O)=O)ccc1Nc1nc2ccc(-c3ccc(NC(=O)[C@H](C)c4ccc(F)cc4)cc3)cn2n1,> 100000,> 100000 nM,75 nM,> 100000 nM,> 100000,> 100000 nM,> 100000 nM,> 100000 nM,33200,> 100000 nM,1180,> 100000 nM,> 100000 nM,> 100000 nM,> 20600,> 100000 nM,> 100000 nM,620,> 100000 nM,4290 nM
O=C1Nc2cccc3cc(NCC(O)CCl)cc1c23 (stereo not drawn),> 100000,> 100000 nM,–,> 100000 nM,–,> 100000 nM,–,> 100000 nM,–,> 100000 nM,–,95200 nM,–,> 100000 nM,–,> 100000 nM,> 100000 nM,–,–,–
CC[C@@]1(O)C(=O)OCc2c1cc1n(c2=O)Cc2cc3cc(N)ccc3nc2-1,–,9060 nM and 44000 nM,214 nM and 102 nM,–,1.35,15.7 nM and < 15.1 nM,56 nM,3060 nM and 2210 nM,16.2,404 nM and 40.9 nM,6.48,143 nM,7.42 nM and 14.3 nM,111 nM and 108 nM,–,169 nM and 116 nM,–,100,304 nM and 348 nM,141 nM and 84.2 nM
COc1ccc(Cl)cc1Nc1nc(C(F)(F)F)ccc1C(=O)N/N=C/c1cc(OC)c(OC)c(OC)c1,> 100000,13500 nM,1230 nM,11900 nM,5170,20500 nM,346 nM,2300 nM,1610,3930 nM,642,2820 nM,3350 nM,12600 nM,3350,21600 nM,17400 nM,1270,1360 nM,2400 nM
